In article PMC11165695 (Nature methods, 2024):

Key:
[1] = tested on: alkaline phosphatase (ALP); conditions: pNPP 200 μM, ALP 0.5 U/mL, PBS, room temperature, UV absorbance 405 nm
[2] = tested on: SJSA-1 cells; test: Apoptosis induction / caspase-3/7 activation; assay type: cell-based; conditions: Supplementary Figure 14

| Structure (SMILES) | initial speed (v0), standard substrate [1] [nmol/min] | apoptosis induction [2] |
| --- | --- | --- |
| O=[N+]([O-])c1ccc(OP(=O)(O)O)cc1 [P-nitrophenyl phosphate] | 0.53 | – |
| COc1cccc2c1C(=O)c1c(O)c3c(c(O)c1C2=O)C[C@@](O)(C(=O)CO)C[C@@H]3O[C@H]1C[C@H](N)[C@H](O)[C@H](C)O1 [Doxorubicin] | – | efficiently induces apoptosis |
